Assay results taken from paper PMC11859074, “Exploring the Anticancer Potential of NO-Donor Oxadiazole Assemblies Against Malignant Pleural Mesothelioma” (Pharmaceutics, 2025).
Several values for one entry are separate records, joined by “and”; a condition that tells them apart may be missing. Identical values can stand only once. Like-named read-outs stand apart in the source and are kept apart here.

Legend:
[1] = NO release assay (Griess assay, phosphate buffer with L-cysteine); conditions: for NO Released (%) 1 h / NO Released (%) 24 h / NO Released (%) 48 h: % NO2− (μmol/μmol) relative to initial concentration (100 μM), L-cysteine; for NO Released (%) 1 h: phosphate buffer pH 7.4, 37 °C; for NO Released (%) 24 h: phosphate buffer pH 7.4, 24 h; for NO Released (%) 48 h: phosphate buffer pH 7.4, 48 h; for Fold Change 24 h/1 h: ratio of NO released at 24 h to 1 h; for Fold Change 48 h/1 h: ratio of NO released at 48 h to 1 h; for Fold Change 48 h/24 h: ratio of NO released at 48 h to 24 h; for NO-donor capacity: Griess assay, time point not stated
[2] = test system: AB1 (mouse malignant mesothelioma cell line); set-up: method as in doi:10.1039/D4NJ02047B; conditions: MTT assay, 72 h exposure; ref [33]; cited from earlier work
[3] = test system: JU77 (human mesothelioma cell line); set-up: method as in doi:10.1039/D4NJ02047B; conditions: ref [33], cited from earlier work
[4] = test system: MRC-5 (human embryonic lung fibroblast cell line); set-up: method as in doi:10.1039/D4NJ02047B; conditions: MTT assay, 72 h exposure; ref [33]; cited from earlier work
[5] = test system: AB1 (mouse malignant mesothelioma cell line); assay: MTT cytotoxicity assay, AB1 cells; type: cell-based; conditions: 72 h exposure
Method: (§1) AB1 (mouse malignant mesothelioma cell line) and JU77 (human mesothelioma cell line) were obtained from Cell Bank Australia; MRC-5 (human embryonic lung fibroblast cell line) was obtained from ATCC. […] Cells were grown in tissue culture flasks (75 cm^2 and 25 cm^2, SPL Life Sciences, Pocheon, South Korea). […] The cytotoxicity of compounds was determined using the MTT colorimetric test. Cells were harvested from culture flasks by trypsinization and seeded into Cellstar 96-well microculture plates at a seeding density of 6000 cells per well (6 × 10^4 cells per mL). After the cells were allowed to resume exponential growth for 24 h, they were exposed to drugs at different concentrations in media for 72 h. The tested compounds were diluted in the complete medium at the desired concentrations added to each well (100 μL) and serially diluted to other wells. After 72 h of exposure, the medium was replaced with MTT (5 mg mL^−1, 100 μL per well) and incubated for an additional 50 min. Subsequently, the medium was aspirated, and the purple formazan crystals formed in viable cells were dissolved in DMSO (100 μL per well). […] The evaluation was based on means from at least three independent experiments, each comprising three replicates per concentration level.

[6] = test system: JU77 (human mesothelioma cell line); assay: cells; type: cell-based; conditions: for IC50: Homo sapiens, MTT assay, 72 h exposure; for SFJU77 (selectivity factor): IC50(MRC-5)/IC50(JU77); for times higher cytotoxicity in human MPM cells compared to human lung fibroblasts: 72 h
Method: as §1

[7] = test system: MRC-5 (human embryonic lung fibroblast cell line); assay: MTT cytotoxicity assay, MRC-5 cells; type: cell-based; conditions: MRC5, 72 h exposure
Method: as §1

[8] = test system: AB1 and JU77 mesothelioma cell lines; assay: cells; type: cell-based, mouse and human; conditions: for IC50: MPM, range over AB1 and JU77, 72 h MTT, read-out: IC50 values in both cell lines
Method: as §1

IC50 [6] | IC50 [8] | SMILES | NO Released (%) 1 h [1] | NO Released (%) 24 h [1] | NO Released (%) 48 h [1] | Fold Change 24 h/1 h [1] | Fold Change 48 h/1 h [1] | Fold Change 48 h/24 h [1] | IC50 [2] | SFJU77 (selectivity factor) ([3]; IC50(MRC-5)/IC50(JU77)) | IC50 ([3]; MTT assay, 72 h exposure) | IC50 [4] | IC50 [5] | SFJU77 (selectivity factor) [6] | IC50 [7] | times higher cytotoxicity in human MPM cells compared to human lung fibroblasts [6] | NO-donor capacity [1] | selectivity for cancer cells (in words) ([6]; MPM cells vs MRC-5 human lung fibroblasts) | cytotoxicity (in words) [8]
3.7 ± 1 µM |  | N#Cc1c(-c2noc(-c3ccccc3)n2)no[n+]1[O-] [Compound 2a, 3-Cyano-4-(5-phenyl-1,2,4-oxadiazolyl)furoxan] | 50 ± 8% | 59 ± 5% | 89 ± 6% | 1.2 | 1.8 | 1.5 |  |  |  |  | 3.4 ± 0.2 µM | 1.0 | 3.7 µM |  |  |  | 
2.7 ± 0.2 µM |  | N#Cc1c(-c2noc(-c3ccc([N+](=O)[O-])cc3)n2)no[n+]1[O-] [Compound 2b, 3-Cyano-4-(5-(4-nitrophenyl)-1,2,4-oxadiazolyl)furoxan] | 51 ± 11% | 74 ± 1% | 80 ± 4% | 1.5 | 1.6 | 1.1 |  |  |  |  | 4.1 ± 0.9 µM | 1.6 | 4.4 ± 0.6 µM |  |  |  | 
1.2 ± 0.2 µM |  | N#Cc1c(-c2noc(-c3cccc([N+](=O)[O-])c3)n2)no[n+]1[O-] [Compound 2c, 3-Cyano-4-(5-(3-nitrophenyl)-1,2,4-oxadiazolyl)furoxan] | 61 ± 8% | 107 ± 8% | 107 ± 10% | 1.8 | 1.8 | 1.0 |  |  |  |  | 2.8 ± 0.5 µM | 3.6 | 4.3 ± 0.3 µM | 2.4-3.6 times | > 100% |  | 
0.87 ± 0.07 µM | 0.87 to 1.8 µM | N#Cc1c(-c2noc(-c3ccccc3[N+](=O)[O-])n2)no[n+]1[O-] [Compound 2d, 3-Cyano-4-(5-(2-nitrophenyl)-1,2,4-oxadiazolyl)furoxan] | 69 ± 1% | 86 ± 3% | 89 ± 3% | 1.2 | 1.3 | 1.0 |  |  |  |  | 1.8 ± 0.2 µM | 2.5 | 2.2 ± 0.2 µM | 2.4-3.6 times |  |  | 
4.2 ± 0.8 µM |  | N#Cc1c(-c2noc(-c3ccncc3)n2)no[n+]1[O-] [Compound 2e, 3-Cyano-4-(5-(pyridin-4-yl)-1,2,4-oxadiazolyl)furoxan] | 53 ± 7% | 87 ± 13% | 87 ± 11% | 1.6 | 1.6 | 1.0 |  |  |  |  | 7.9 ± 2 µM | 1.1 | 4.7 ± 0.3 µM |  |  | low selectivity for cancer cells | 
3.1 ± 0.2 µM |  | Cc1ccc(-c2nc(-c3no[n+]([O-])c3C#N)no2)cc1 [Compound 2g, 3-Cyano-4-(5-(p-tolyl)-1,2,4-oxadiazolyl)furoxan] | 59 ± 1% | 74 ± 6% | 81 ± 10% | 1.3 | 1.4 | 1.1 |  |  |  |  | 4.9 ± 1.4 µM | 1.5 | 4.8 ± 0.3 µM |  |  |  | 
2.9 ± 0.3 µM |  | COc1ccc(-c2nc(-c3no[n+]([O-])c3C#N)no2)cc1 [Compound 2h, 3-Cyano-4-(5-(4-methoxyphenyl)-1,2,4-oxadiazolyl)furoxan] | 54 ± 6% | 79 ± 5% | 86 ± 4% | 1.5 | 1.6 | 1.1 |  |  |  |  | 4.1 ± 0.7 µM | 1.4 | 4.2 ± 0.7 µM |  |  |  | 

Second part, the compound before the results:

SMILES | IC50 [6] | IC50 [8] | NO Released (%) 1 h [1] | NO Released (%) 24 h [1] | NO Released (%) 48 h [1] | Fold Change 24 h/1 h [1] | Fold Change 48 h/1 h [1] | Fold Change 48 h/24 h [1] | IC50 [2] | SFJU77 (selectivity factor) ([3]; IC50(MRC-5)/IC50(JU77)) | IC50 ([3]; MTT assay, 72 h exposure) | IC50 [4] | IC50 [5] | SFJU77 (selectivity factor) [6] | IC50 [7] | times higher cytotoxicity in human MPM cells compared to human lung fibroblasts [6] | NO-donor capacity [1] | selectivity for cancer cells (in words) ([6]; MPM cells vs MRC-5 human lung fibroblasts) | cytotoxicity (in words) [8]
NC(=O)c1c(CO)no[n+]1[O-] [CAS-1609, 3-carbamoyl-4-(hydroxymethyl)furoxan, reference compound] |  |  | 27% and 27 ± 3% | 68 ± 6% | 73 ± 6% | 2.5 | 2.7 | 1.1 |  |  |  |  |  |  |  |  |  |  | 
CCOc1no[n+]([O-])c1S(=O)(=O)c1ccccc1 [CHF-2363, 4-ethoxy-3-phenylsulphonylfuroxan, reference compound] |  |  | 26 ± 10% | 71 ± 4% | 77 ± 9% | 2.7 | 3.0 | 1.1 |  |  |  |  |  |  |  |  |  |  | 
N.N.[Cl][Pt][Cl] [Cisplatin, cisplatin] |  |  |  |  |  |  |  |  | 5.8 ± 1 µM | 0.7 | 4.2 ± 0.5 µM | 3.1 ± 1.2 µM |  |  |  |  |  |  | 
COCc1nc(-c2no[n+]([O-])c2C#N)no1 [Compound 2f, 3-Cyano-4-(5-(methoxymethyl)-1,2,4-oxadiazolyl)furoxan] | > 150 µM |  | 50 ± 7% | 66 ± 11% | 71 ± 11% | 1.3 | 1.4 | 1.1 |  |  |  |  | > 150 µM |  | > 150 µM |  |  |  | no cytotoxic effects
COc1ccc(-c2nc(-c3no[n+]([O-])c3C#N)no2)cc1OC [Compound 2i, 3-Cyano-4-(5-(3,4-dimethoxyphenyl)-1,2,4-oxadiazolyl)furoxan] | 1.6 ± 0.4 µM |  | 54 ± 14% | 82 ± 14% | 94 ±14% | 1.5 | 1.7 | 1.1 |  |  |  |  | 3.3 ± 0.7 µM | 2.5 | 4 ± 0.6 µM | 2.4-3.6 times |  |  | 
N#Cc1c(-c2noc(-c3ccccc3Cl)n2)no[n+]1[O-] [Compound 2j, 4-(5-(2-Chlorophenyl)-1,2,4-oxadiazolyl)-3-cyanofuroxan] | 1.4 ± 0.2 µM |  | 53 ± 4% | 80 ± 3% | 84 ± 2% | 1.5 | 1.6 | 1.1 |  |  |  |  | 2.1 ± 0.3 µM | 2.4 | 3.3 ± 0.3 µM | 2.4-3.6 times |  |  | 
N#Cc1c(-c2noc(-c3ccco3)n2)no[n+]1[O-] [Compound 2k, 3-Cyano-4-(5-(2-furyl)-1,2,4-oxadiazolyl)furoxan] | 0.99 ± 0.13 µM | 0.87 to 1.8 µM | 73 ± 7% | 97 ± 6% | 104 ± 12% | 1.3 | 1.4 | 1.1 |  |  |  |  | 1.4 ± 0.4 µM | 1.5 | 1.5 ± 0.3 µM |  | > 100% |  | 
N#Cc1c(-c2ncon2)no[n+]1[O-] [Compound 2l, 3-Cyano-4-(1,2,4-oxadiazolyl)furoxan] | 5.4 ± 1.3 µM | 5.4 to 7 µM | 42 ± 5% | 68 ± 8% | 72 ± 8% | 1.6 | 1.7 | 1.1 |  |  |  |  | 7 ± 1.3 µM | 0.9 | 4.6 ± 1 µM |  |  |  | 
